# Experimental data from patent US7968600B2, “Medicament for preventive and therapeutic treatment of physical dysfunction caused by nerve damage” (Nanoegg Research Laboratories, Inc., priority 2007, dated 2011).
# Key:
# [1] = tested on: regenerated nerves; settings: 50 μL (10 nM RA); cited from earlier work
# [2] = tested on: traumatic spinal cord injury model rats; assay: Basso-Beattie-Bresnahan (BBB) score, motor function of the hind limb in traumatic spinal cord injury model rats; type: in vivo, Wistar rats; settings: for BBB score: 21st day from the injury; for BBB scores compared to the control group (FIG. 1): time course after the injury
# Procedure: (§1) 23 of 9 weeks old female Wistar rats had on their spinal cords of the thoracic vertebrae injured under anesthesia by loading a weight of 10 g dropped from a height of 2.5 cm to prepare traumatic spinal cord injury model rats with impaired motor function of the hind limb. The 23 rats were divided into the following 3 groups: • 1st Group: 8 rats were administered orally with 3 mg/kg of 4-[(5,6,7,8-tetrahydro-5,5,8,8-tetramethyl-2-naphthalenyl)carbamoyl]benzoic acid once before the injury and then once a day. • 2nd Group: 8 rats were administered with 0.15 mg/kg of 4-[(5,6,7,8-tetrahydro-5,5,8,8-tetramethyl-2-naphthalenyl)carbamoyl]benzoic acid directly to the injured site immediately after the injury, and then administered subcutaneously once a day near the injured area. • 3rd Group: 7 rats were administered orally with 1 ml/kg of 0.5% carboxymethyl cellulose (CMC) solution as a control group.
# (§2) Administration was performed every day for 21 days after the injury for each group. The motor function of the hind limb was evaluated according to the Basso-Beattie-Bresnahan (BBB) score every day up to 21st day, and 28th day after the injury. For animals with BBB scores being 10 or more, evaluation of the motor function was performed by using a treadmill (manufactured by Muromachi Kikai Co., Ltd) on the 21st and the 28th day. The treadmill tests were performed for 5 minutes with velocity of the treadmill walking surface being kept at 8 m/min. In the test, a period of time during which the animal walked with four legs was measured, and in addition, total number of the contact of the animal with the end wall of the walking surface due to the stop walking of the animal was measured, thereby motor function was evaluated.
# [3] = tested on: traumatic spinal cord injury model rats; assay: Treadmill test (compulsory walking) in traumatic spinal cord injury model rats; type: in vivo, Wistar rats; settings: for Number of contact to back end wall: 21st day from the injury, treadmill 8 m/min for 5 min, **p < 0.01; for number of the contact with the back end wall as compared to the control group / walking period as compared to the control group: treadmill test
# Procedure: as §1, §2
Structure (SMILES),increase of regenerated nerves [1],recovery in nerve and motor functions [1],BBB score ([2]; oral 3.0 mg/kg once a day),BBB scores compared to the control group (FIG. 1) ([2]; oral 3 mg/kg),"BBB score ([2]; subcutaneous 0.15 mg/kg once a day, *p < 0.05)",BBB scores compared to the control group (FIG. 1) ([2]; subcutaneous 0.15 mg/kg),Number of contact to back end wall ([3]; oral 3.0 mg/kg once a day),number of the contact with the back end wall as compared to the control group ([3]; oral administration),walking period as compared to the control group ([3]; oral administration),Number of contact to back end wall ([3]; subcutaneous 0.15 mg/kg once a day),number of the contact with the back end wall as compared to the control group ([3]; subcutaneous administration),walking period as compared to the control group ([3]; subcutaneous administration)
"CC1=C(/C=C/C(C)=C/C=C/C(C)=C/C(=O)O)C(C)(C)CCC1 [Vitamin A acid, all-trans retinoic acid]",30%,no recovery,,,,,,,,,,
"CC1(C)CCC(C)(C)c2cc(NC(=O)c3ccc(C(=O)O)cc3)ccc21 [4-[(5,6,7,8-tetrahydro-5,5,8,8-tetramethyl-2-naphthalenyl)carbamoyl]benzoic acid]",,,11.43 ± 3.80 ^,significantly improved BBB scores,12.71 ± 2.28(*),significantly improved BBB scores,16.0 ± 8.3(**),remarkable decrease,prolongation of the walking period,13.4 ± 6.7(**),remarkable decrease,prolongation of the walking period
